Earlier results in patent publication US9095555B2, “Cannabinoid formulations” (FULL SPECTRUM LABORATORIES LIMITED, priority 2011, dated 2015).

Experiments:
[1] = prolonged contact with air, oxidation to cannabinol (CBN)

CCCCCc1cc(O)c2c(c1)OC(C)(C)[C@@H]1CCC(C)=C[C@@H]21 [Dronabinol, Δ^9-tetrahydrocannabinol]
Onset of therapeutic potency (after oral administration): 0.5 to 1 h
Amount reaching the blood stream by absorption through the digestive system (oral): 10-20 % of the administered dose
Peak therapeutic effect lasting (post administration, oral): 2 to 4 h
Oxidation stability [1]: prone to oxidation
